According to PubChem BioAssay AID1053166 (Broad Institute, 2014):

Tested on: Vaccinia-infected cells, mCherry/Venus stage reporter fluorescence
Assay: inhibition of vaccinia stage-reporter fluorescence – cell-based, dry powder, dose response (AID 1053166)

Point of comparison: `Cc1ccccc1-c1ccc(CN(C)C[C@@H]2Oc3cc(C#C[C@@H](C)O)ccc3S(=O)(=O)N([C@@H](C)CO)C[C@@H]2C)cc1`, AC50 1150 nM. Against it:
- C[C@@H](O)C#Cc1ccc2c(c1)O[C@@H](CN(C)Cc1ccc(-c3ccccc3Cl)cc1)[C@@H](C)CN([C@@H](C)CO)S2(=O)=O — within 1.5-fold, 992 nM
- Cc1cccc(-c2ccc(CN(C)C[C@@H]3Oc4cc(C#C[C@@H](C)O)ccc4S(=O)(=O)N([C@@H](C)CO)C[C@@H]3C)cc2)c1 — 2.1-fold higher, 2370 nM
- Cc1ccc(-c2ccc(CN(C)C[C@@H]3Oc4cc(C#C[C@@H](C)O)ccc4S(=O)(=O)N([C@@H](C)CO)C[C@@H]3C)cc2)cc1 — 1.6-fold higher, 1790 nM
